pEC50: −log10 of the molar value.
These molecules were tested on AMPK (assay: AMPK activation assay (enzyme-linked immunosorbent assay)).
Format: cell-based
Method in brief: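 Activation by each compound is measured using a conventional commercial immunoassay kit.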

`O=C(NC1CCN(Cc2ccc(OC(F)(F)F)cc2)CC1)c1ccc(C(=O)N2CCC(Oc3ccc(C(=O)C4CC4)cc3)CC2)nc1` [Compound 455, 6-(4-(4-(cyclopropanecarbonyl)phenoxy)piperidine-1-carbonyl)-N-(1-(4-(trifluoromethoxy)benzyl)piperidin-4-yl)nicotinamide] and `COc1ccc(CN2CCC(NC(=O)c3ccc(C(=O)N4CCC(Oc5ccc(C(=O)C6CC6)cc5)CC4)nc3)CC2)cc1` [Compound 458, 6-(4-(4-(cyclopropanecarbonyl)phenoxy)piperidine-1-carbonyl)-N-(1-(4-methoxybenzyl)piperidin-4-yl)nicotinamide] cannot be ordered by pEC50: > 6.30 for the first, > 6.30 for the second.

`N#Cc1ccc(CN2CCC(NC(=O)c3ccc(C(=O)N4CCC(Oc5ccc(C(=O)C6CC6)cc5)CC4)nc3)CC2)cc1` [Compound 456, N-(1-(4-cyanobenzyl)piperidin-4-yl)-6-(4-(4-(cyclopropanecarbonyl)phenoxy)piperidine-1-carbonyl)nicotinamide] and `COc1ccc(C(=O)C2CCN(C(=O)c3ccc(C(=O)N(C)C4CCN(Cc5ccc(C#N)cc5)CC4)cn3)CC2)cc1` [Compound 482, N-(1-(4-cyanobenzyl)piperidin-4-yl)-6-(4-(4-methoxybenzoyl)piperidine-1-carbonyl)-N-methylnicotinamide] cannot be ordered by pEC50: > 6.30 for the first, > 6.30 for the second.

`O=C(Nc1ccc(Oc2ccc(F)cc2)nc1)c1ccc(C(=O)N2CCC(Oc3ccc(C(=O)C4CC4)cc3)CC2)nc1` [Compound 457, 6-(4-(4-(cyclopropanecarbonyl)phenoxy)piperidine-1-carbonyl)-N-(6-(4-fluorophenoxy)pyridin-3-yl)nicotinamide] and `CC(=O)c1ccc(Oc2ccc(NC(=O)c3ccc(C(=O)N4CCC(Oc5ccc(S(=O)(=O)C6CC6)cc5)CC4)nc3)cn2)cc1` [Compound 486, N-(6-(4-acetylphenoxy)pyridin-3-yl)-6-(4-(4-(cyclopropylsulfonyl)phenoxy)piperidine-1-carbonyl)nicotinamide] cannot be ordered by pEC50: > 6.30 for the first, > 6.30 for the second.

`CS(=O)(=O)c1ccc(OC2CCN(C(=O)c3ccc(C(=O)Nc4ccc(Oc5ccc(C#N)cc5)nc4)cn3)CC2)cc1` [Compound 459, N-(6-(4-cyanophenoxy)pyridin-3-yl)-6-(4-(4-(methylsulfonyl)phenoxy)piperidine-1-carbonyl)nicotinamide] and `CC(=O)c1ccc(Oc2ccc(NC(=O)c3ccc(C(=O)N4CCC(Oc5ccc(S(C)(=O)=O)cc5)CC4)nc3)cn2)cc1` [Compound 485, N-(6-(4-acetylphenoxy)pyridin-3-yl)-6-(4-(4-(methylsulfonyl)phenoxy)piperidine-1-carbonyl)nicotinamide] cannot be ordered by pEC50: > 6.30 for the first, > 6.30 for the second.

`COc1ccc(C(=O)C2CCN(C(=O)c3ccc(C(=O)Nc4ccc(Oc5ccc(C#N)cc5)nc4)cn3)CC2)cc1` [Compound 460, N-(6-(4-cyanophenoxy)pyridin-3-yl)-6-(4-(4-methoxybenzoyl)piperidine-1-carbonyl)nicotinamide] and `COc1ccc(C(=O)C2CCN(C(=O)c3ccc(C(=O)Nc4ccc(Oc5ccc(C(C)=O)cc5)nc4)cn3)CC2)cc1` [Compound 462, N-(6-(4-acetylphenoxy)pyridin-3-yl)-6-(4-(4-methoxybenzoyl)piperidine-1-carbonyl)nicotinamide] cannot be ordered by pEC50: > 6.30 for the first, > 6.30 for the second.

`N#Cc1ccc(Oc2ccc(NC(=O)c3ccc(C(=O)N4CCC(C(=O)c5ccc(F)cc5F)CC4)nc3)cn2)cc1` [Compound 463, N-(6-(4-cyanophenoxy)pyridin-3-yl)-6-(4-(2,4-difluorobenzoyl)piperidine-1-carbonyl)nicotinamide] and `CC(=O)c1ccc(Oc2ccc(NC(=O)c3ccc(C(=O)N4CCC(C(=O)c5ccc(F)cc5F)CC4)nc3)cn2)cc1` [Compound 464, N-(6-(4-acetylphenoxy)pyridin-3-yl)-6-(4-(2,4-difluorobenzoyl)piperidine-1-carbonyl)nicotinamide] cannot be ordered by pEC50: > 6.30 for the first, > 6.30 for the second.

`COc1ccc(C(=O)C2CCN(C(=O)c3ccc(C(=O)Nc4ccc(Oc5ccc(S(C)(=O)=O)cc5)nc4)cn3)CC2)cc1` [Compound 465, 6-(4-(4-methoxybenzoyl)piperidine-1-carbonyl)-N-(6-(4-(methylsulfonyl)phenoxy)pyridin-3-yl)nicotinamide] and `COc1ccc(C(=O)C2CCN(C(=O)c3ccc(C(=O)Nc4ccc(Oc5ccc(C(=O)N(C)C)cc5)nc4)cn3)CC2)cc1` [Compound 480, N-(6-(4-(dimethylcarbamoyl)phenoxy)pyridin-3-yl)-6-(4-(4-methoxybenzoyl)piperidine-1-carbonyl)nicotinamide] cannot be ordered by pEC50: > 6.30 for the first, > 6.30 for the second.

`CS(=O)(=O)c1ccc(Oc2ccc(NC(=O)c3ccc(C(=O)N4CCC(C(=O)c5ccc(F)cc5F)CC4)nc3)cn2)cc1` [Compound 466, 6-(4-(2,4-difluorobenzoyl)piperidine-1-carbonyl)-N-(6-(4-(methylsulfonyl)phenoxy)pyridin-3-yl)nicotinamide] and `CN(C)C(=O)c1ccc(Oc2ccc(NC(=O)c3ccc(C(=O)N4CCC(C(=O)c5ccc(F)cc5F)CC4)nc3)cn2)cc1` [Compound 481, 6-(4-(2,4-difluorobenzoyl)piperidine-1-carbonyl)-N-(6-(4-(dimethylcarbamoyl)phenoxy)pyridin-3-yl)nicotinamide] cannot be ordered by pEC50: > 6.30 for the first, > 6.30 for the second.

`COc1ccc(C(=O)C2CCN(C(=O)c3ccc(C(=O)Nc4ccc(S(=O)(=O)c5ccc(F)cc5)nc4)cn3)CC2)cc1` [Compound 467, N-(6-(4-fluorophenylsulfonyl)pyridin-3-yl)-6-(4-(4-methoxybenzoyl)piperidine-1-carbonyl)nicotinamide] and `CC(=O)c1ccc(Oc2ccc(NC(=O)c3ccc(C(=O)N4CCC(S(=O)(=O)c5ccc(F)cc5)CC4)nc3)cn2)cc1` [Compound 473, N-(6-(4-acetylphenoxy)pyridin-3-yl)-6-(4-(4-fluorophenylsulfonyl)piperidine-1-carbonyl)nicotinamide] fall in the same range of pEC50: 5.30 to 6.00 for the first, 5.30 to 6.00 for the second.

`COc1ccc(C(=O)C2CCN(C(=O)c3ccc(C(=O)Nc4ccc(Oc5ccc(C#N)cc5)cn4)cn3)CC2)cc1` [Compound 468, N-(5-(4-cyanophenoxy)pyridin-2-yl)-6-(4-(4-methoxybenzoyl)piperidine-1-carbonyl)nicotinamide] and `COc1ccc(C(=O)C2CCN(C(=O)c3ccc(C(=O)Nc4ccc(Oc5ccc(C#N)cc5)nc4C)cn3)CC2)cc1` [Compound 478, N-(6-(4-cyanophenoxy)-2-methylpyridin-3-yl)-6-(4-(4-methoxybenzoyl)piperidine-1-carbonyl)nicotinamide] cannot be ordered by pEC50: > 6.30 for the first, > 6.30 for the second.

`N#Cc1ccc(Oc2ccc(NC(=O)c3ccc(C(=O)N4CCC(C(=O)c5ccc(F)cc5F)CC4)nc3)nc2)cc1` [Compound 469, N-(5-(4-cyanophenoxy)pyridin-2-yl)-6-(4-(2,4-difluorobenzoyl)piperidine-1-carbonyl)nicotinamide] and `Cc1nc(Oc2ccc(C#N)cc2)ccc1NC(=O)c1ccc(C(=O)N2CCC(C(=O)c3ccc(F)cc3F)CC2)nc1` [Compound 479, N-(6-(4-cyanophenoxy)-2-methylpyridin-3-yl)-6-(4-(2,4-difluorobenzoyl)piperidine-1-carbonyl)nicotinamide] cannot be ordered by pEC50: > 6.30 for the first, > 6.30 for the second.

Compared with `O=C(NC1CCN(Cc2ccc(OC(F)(F)F)cc2)CC1)c1ccc(C(=O)N2CCC(S(=O)(=O)c3ccc(F)cc3)CC2)nc1` [Compound 470, 6-(4-(4-fluorophenylsulfonyl)piperidine-1-carbonyl)-N-(1-(4-(trifluoromethoxy)benzyl)piperidin-4-yl)nicotinamide], `COc1ccc(CN2CCC(NC(=O)c3ccc(C(=O)N4CCC(S(=O)(=O)c5ccc(F)cc5)CC4)nc3)CC2)cc1` [Compound 474, 6-(4-(4-fluorophenylsulfonyl)piperidine-1-carbonyl)-N-(1-(4-methoxybenzyl)piperidin-4-yl)nicotinamide] is lower in pEC50: > 6.30 for the first, 5.30 to 6.00 for the second. The first is the more potent here.

`N#Cc1ccc(CN2CCC(NC(=O)c3ccc(C(=O)N4CCC(S(=O)(=O)c5ccc(F)cc5)CC4)nc3)CC2)cc1` [Compound 471, N-(1-(4-cyanobenzyl)piperidin-4-yl)-6-(4-(4-fluorophenylsulfonyl)piperidine-1-carbonyl)nicotinamide] and `COc1cccc(CN2CCC(NC(=O)c3ccc(C(=O)N4CCC(S(=O)(=O)c5ccc(F)cc5)CC4)nc3)CC2)c1` [Compound 475, 6-(4-(4-fluorophenylsulfonyl)piperidine-1-carbonyl)-N-(1-(3-methoxybenzyl)piperidin-4-yl)nicotinamide] fall in the same range of pEC50: 5.30 to 6.00 for the first, 5.30 to 6.00 for the second.

First: N#Cc1ccc(Oc2ccc(NC(=O)c3ccc(C(=O)N4CCC(S(=O)(=O)c5ccc(F)cc5)CC4)nc3)cn2)cc1 [Compound 472, N-(6-(4-cyanophenoxy)pyridin-3-yl)-6-(4-(4-fluorophenylsulfonyl)piperidine-1-carbonyl)nicotinamide]
Second: N#Cc1ccc(Oc2ccc(NC(=O)c3ccc(C(=O)N4CCN(Cc5ccc(F)cc5)CC4)nc3)cn2)cc1 [Compound 476, N-(6-(4-cyanophenoxy)pyridin-3-yl)-6-(4-(4-fluorobenzyl)piperazine-1-carbonyl)nicotinamide]
The pEC50 of the first is lower: 5.30 to 6.00 for the first, > 6.30 for the second. The second is the more potent here.

First: CC(=O)c1ccc(Oc2ccc(NC(=O)c3ccc(C(=O)N4CCN(Cc5ccc(F)cc5)CC4)nc3)cn2)cc1 [Compound 477, N-(6-(4-acetylphenoxy)pyridin-3-yl)-6-(4-(4-fluorobenzyl)piperazine-1-carbonyl)nicotinamide]
Second: CC(=O)c1ccc(Oc2ccc(NC(=O)c3ccc(C(=O)N4CCN(c5ccc(S(C)(=O)=O)cc5)CC4)nc3)cn2)cc1 [Compound 487, N-(6-(4-acetylphenoxy)pyridin-3-yl)-6-(4-(4-(methylsulfonyl)phenyl)piperazine-1-carbonyl)nicotinamide]
The pEC50 of the first is higher: > 6.30 for the first, 5.30 to 6.00 for the second.

`COc1ccc(C(=O)C2CCN(C(=O)c3ccc(C(=O)N(C)C4CCN(Cc5ccc(OC(F)(F)F)cc5)CC4)cn3)CC2)cc1` [Compound 483, 6-(4-(4-methoxybenzoyl)piperidine-1-carbonyl)-N-methyl-N-(1-(4-(trifluoromethoxy)benzyl)piperidin-4-yl)nicotinamide] and `COc1ccc(CN2CCC(N(C)C(=O)c3ccc(C(=O)N4CCC(C(=O)c5ccc(OC)cc5)CC4)nc3)CC2)cc1` [Compound 484, 6-(4-(4-methoxybenzoyl)piperidine-1-carbonyl)-N-(1-(4-methoxybenzyl)piperidin-4-yl)-N-methylnicotinamide] cannot be ordered by pEC50: > 6.30 for the first, > 6.30 for the second.

Source: patent publication US20150087673A1, “METHODS FOR USING AND BIOMARKERS FOR AMPK-ACTIVATING COMPOUNDS” (RIGEL PHARMACEUTICALS, INC., priority 2013, published 2015)
